# Source: patent US20060089335A1, “Compositions and methods for enhancing cognitive function and synaptic plasticity” (priority 2003, published 2006)
# Values joined by “and” are separate entries in the source; they are usually repeats but may differ in a detail not shown here. Equal values may be shown once. “Also recorded” adds a separate entry of the source.
# Assays:
# [1] = rat, in vivo
# Description: Determination of [Mg^++] in CSF. Total Mg^++ levels in CSF in control and Mg^++-treated rats were determined by a colorimetric method with xylidyl blue (Anilytics Incorporated, MD) (Thomas, L. (1998). Clinical Laboratory diagnostics. 1st ed. Francfurt: TH-Books Verlagsgesellschaft, 231-41.)
# (§1) Behavior test: Novel object recognition. The subjects were 20 experimentally naive, female, Sprague-Dawley rats (Charles River), 1 year old at the beginning of the experiment. They were housed two per cage with continuous access to food and water under a 12:12 light-dark cycle, with light onset at 8:00 a.m. Rats in the Mg^++-treated group received drinking water containing 6 mg/kg/day MgCl2 for 4 months before experiments.
# We noted that the extracellular concentration Mg^+ in the CSF of a normal human brain is about 1.2 mM, the same concentration at which we obtained the maximum synaptic plasticity in vitro (FIG. 8B). We tested whether increasing Mg^++ concentration might also lead to enhanced synaptic plasticity in rats in vivo. Since Mg^++ is an essential mineral, normally obtained only by ingestion, we added a low quantity of Mg^++ (˜6 mg/kg/day) to drinking water in attempt to raise CSF Mg^++ concentration. This amount was proportional to that recommended by the FDA as a daily food supplement for humans. Two groups of adult Sprague-Dawley rats (8 months) were used as experimental populations. […]
# [2] = system: cultured hippocampal neurons; test: control recordings of membrane potential, synaptic inputs and firing; format: cell-based, rat
# Description: Electrophysiology. Dual whole cell perforated patch clamp recordings were made on two interconnected cultured hippocampal pyramidal neurons. Perforated patch pipettes were front-filled with a solution containing (in mM): CsOH, 127; D-gluconic acid, 127; CsCl, 4; HEPES, 10; NaCl, 8; EGTA, 0.4; pH was adjusted to 7.25 with CsOH, and then back-filled with the same solution containing […] amphotericin B (Sigma, St. Louis, Mo.). Extracellular solution contained (in mM): NaCl, 145; KCl, 3; glucose, 15; HEPES, 10; MgCl2, 0.8-1.2; CaCl2, 1.2; 0.005 glycine (Sigma), 0.05 picrotoxin (Sigma); pH adjusted to 7.4 with NaOH. MgCl2 concentration was matched to its concentration in culture medium. In experiments where effects of drugs on neuronal activity were quantified (FIG. 4D), recordings were done in culture medium (with HEPES replacing bicarbonate/CO2 to maintain pH). All experiments were performed at room temperature. For assaying synaptic connectivity, each neuron was stimulated by 1 ms step depolarization from −70 to +30 mV in voltage-clamp mode. Only neurons with monosynaptic connections were used. […] Recordings with access resistance>20 MΩ or that varied substantially were rejected from analysis.
# [3] = system: NMDA receptors at single spine; test: calcium imaging and NMDA currents at single spines; format: cell-based, rat
# [4] = system: recognition memory of 1-year old rats; test: novel object recognition; settings: rat, in vivo
# Description: as §1
# The rats were first habituated to the open-field arena by allowing them to explore it for two daily 15-min sessions. Two identical objects were present in the arenas during habituation sessions; those objects were not used in the subsequent experimental trials. The rat was placed into the arena with two identical sample objects and allowed to explore for 10 min (familiarization phase). For the double-training test, the familiarization phase was repeated with the interval of 10 min. The rat was then removed and the objects were replaced with two new objects; one of the new objects was identical to the sample and the other was a novel object that the rat had never before encountered. The rat was returned to the arena for the retention test and allowed to explore for 5 min (retention test). The retention intervals were 10 min and 24 hours. Rats spent the retention interval in a cage in the colony room. Objects were cleaned thoroughly between trials with 20% ethanol solution to ensure the absence of olfactory cues. The particular objects for a given trial were randomly determined, but each object was used for only one trial per rat.
# The criteria for exploration were strictly based on active exploration, in which rats had to be sniffing or touching the object with the nose and/or forepaws. The main dependent measure was the exploration ratio, that is, the proportion of total object-exploration that was spent exploring the novel object (tnovel/[tnovel+tfamiliar]) during the 5-min test phase. To determine whether the rats discriminated between the novel and familiar objects, the exploration ratios obtained under each condition were compared with what would be expected by chance (i.e., a ratio of ˜50%), using one-sample Student's t tests.
# [5] = system: excitatory and inhibitory terminals
# [6] = system: postsynaptic locations of cultured hippocampal neurons; test: postsynaptic evoked current response to iontophoretic glutamate (AMPA-R insertion); format: cell-based, rat
# Description: These were generally as described in the preceding examples. Glutamatergic iontophoresis was perfomed as described [Murnick 2000].
# Since we wished to correlate the above pre-synaptic findings to the plasticity of single or small clusters of postsynaptic locations, this ruled out traditional double-patch plasticity experiments in which heterogeneous populations of connections are studied. Such studies also usually confound pre-synaptic and postsynaptic effects. For this purpose, we developed a technique of high-temporal and spatial resolution glutamatergic iontophoresis that allows us to stimulate single or small clusters of postsynaptic locations (resolution ˜2 μm, 1 ms; [Murnick 2000]).
# To determine whether a decrease in overall activity of a neural network leads to increased plasticity (i.e., an increase in synaptic strength in response to a pattern of stimulation) of postsynaptic locations, we assessed the effect of treatment with Mg^++ on the ability of postsynaptic locations to respond to glutamate. As described above, Mg^++ blocks the NMDA receptor channel at resting membrane potential, so Mg^++ treatment reduces the overall activity level of the neural network. As also described above, increases in postsynaptic intracellular Ca^++ stimulated by activation of NMDA receptors leads to recruitment of AMPA receptors and their insertion into the postsynaptic membrane. […]
# [7] = rat, in vivo; remark: listed apart in the source
smiles,measurement,setting,value
[Mg+2] [Mg^++],increase in CSF [Mg],[1],approximately 0.13 mM
same,"EPSC1.2/EPSC0.8, overall synaptic inputs during network activity",[2],1.03±0.1
same,"EPSP1.2/EPSP0.8, spontaneous miniature EPSPAMPAs",[2],0.9±0.1
same,change in average firing rates of neurons within cultured neural networks,[2],none of these treatments induces a significant change
same,reduction of Ca^2+ influx (ΔF/F),[3],57±5% and 54±7%
same,reduction of NMDA currents (EPSCNMDA amplitude),[3],54±7% and 57±5%
same,effect on exploratory activity or motivation,[4],no effect on exploratory activity or motivation
same,"exploratory preference towards the novel object, short-term and long-term memory trials",[4],significant exploratory preference towards the novel object
same,"preference to the novel object, long-term",[4],60%
same,"preference to the novel object, short-term memory test",[4],75%
same,"preference towards the novel object, long-term memory test",[4],retained the same level of preference for 24 hours; also recorded: significant exploratory preference towards the novel object in long-term memory trials
same,total time exploring both identical objects during training,[4],24.1 ± 2.5 s
same,increase of synaptic density,[5],~30%
same,neuronal density and morphology,[5],normal neuronal density and morphology
same,postsynaptic evoked current response to glutamate (AMPA-R insertion),[6],showed significant levels of AMPA-R insertion; also recorded: increased current amplitude over time
same,"general status of the rats (body weight, mobility)",[7],did not observe any significant change in the general status
